The experiment addresses human Gal-3 (hGal-3) (Homo sapiens (Human), UniProt P17931). Nature of the experiment: Competitive binding assay: biotinylated hGal-3 binding to microplate-adsorbed asialofetuin (ASF). As to conditions: Activity on hGal-3; mean values of several measurements; mixture of diastereomers measured where not separated. In outline:
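Biotinylated human Gal-3 binding to plate-adsorbed asialofetuin, competed by compound, 3 h at 4 °C. Bound protein detected with streptavidin-peroxidase (1 h, 4 °C) and ABTS substrate. IC50 reported as mean of several measurements.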

Chain of human Gal-3 (hGal-3) (P17931 whole entry): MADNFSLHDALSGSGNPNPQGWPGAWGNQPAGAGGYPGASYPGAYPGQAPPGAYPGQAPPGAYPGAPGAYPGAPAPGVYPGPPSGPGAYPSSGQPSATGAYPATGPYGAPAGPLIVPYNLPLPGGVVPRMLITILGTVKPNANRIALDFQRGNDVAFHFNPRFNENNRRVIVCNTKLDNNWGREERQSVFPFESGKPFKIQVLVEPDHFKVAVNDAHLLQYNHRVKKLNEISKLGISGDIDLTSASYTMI

Take `CO[C@@H]1[C@@H](n2cc(-c3ccc(Cl)c(Cl)c3)nn2)[C@@H](O)[C@@H](CO)O[C@H]1C(=O)N(c1cc(Br)cc(C#N)c1)[C@@H]1COC[C@H]1O` [Example 57, (2R,3R,4S,5R,6R)-N-(3-bromo-5-cyanophenyl)-4-(4-(3,4-dichlorophenyl)-1H-1,2,3-triazol-1-yl)-5-hydroxy-6-(hydroxymethyl)-N-((3R,4S)-4-hydroxytetrahydrofuran-3-yl)-3-methoxytetrahydro-2H-pyran-2-carboxamide]: the IC50 (in general, the concentration that inhibits the measured activity by half) turned out to be 151 nM.

As to `CO[C@@H]1[C@@H](n2cc(-c3ccc(Cl)c(Cl)c3)nn2)[C@@H](O)[C@@H](CO)O[C@H]1C(=O)N(c1cc(C)cc(Br)c1)[C@@H]1COC[C@H]1O` [Example 58, (2R,3R,4S,5R,6R)-N-(3-bromo-5-methylphenyl)-4-(4-(3,4-dichlorophenyl)-1H-1,2,3-triazol-1-yl)-5-hydroxy-6-(hydroxymethyl)-N-((3R,4S)-4-hydroxytetrahydrofuran-3-yl)-3-methoxytetrahydro-2H-pyran-2-carboxamide], the IC50 was found to be 175 nM.

`CO[C@@H]1[C@@H](n2cc(-c3cc(F)c(F)c(F)c3)nn2)[C@@H](O)[C@@H](CO)O[C@H]1C(=O)N(c1cc(Cl)cc(Cl)c1)[C@H]1CNC[C@@H]1O` [Example 59, (2R,3R,4S,5R,6R)-N-(3,5-dichlorophenyl)-5-hydroxy-6-(hydroxymethyl)-N-((3S,4S)-4-hydroxypyrrolidin-3-yl)-3-methoxy-4-(4-(3,4,5-trifluorophenyl)-1H-1,2,3-triazol-1-yl)tetrahydro-2H-pyran-2-carboxamide]: the IC50 worked out at 23 nM.

As to `CO[C@@H]1[C@@H](n2cc(-c3cc(F)c(F)c(F)c3)nn2)[C@@H](O)[C@@H](CO)O[C@H]1C(=O)N(c1cc(Br)cc(C#N)c1)[C@H]1CNC[C@@H]1O` [Example 60, (2R,3R,4S,5R,6R)-N-(3-bromo-5-cyanophenyl)-5-hydroxy-6-(hydroxymethyl)-N-((3S,4S)-4-hydroxypyrrolidin-3-yl)-3-methoxy-4-(4-(3,4,5-trifluorophenyl)-1H-1,2,3-triazol-1-yl)tetrahydro-2H-pyran-2-carboxamide], the IC50 came out at 51 nM.

In the case of `CO[C@@H]1[C@@H](n2cc(-c3cc(F)c(F)c(F)c3)nn2)[C@@H](O)[C@@H](CO)O[C@H]1C(=O)N(c1cc(C)cc(Br)c1)[C@H]1CNC[C@@H]1O` [Example 61, (2R,3R,4S,5R,6R)-N-(3-bromo-5-methylphenyl)-5-hydroxy-6-(hydroxymethyl)-N-((3S,4S)-4-hydroxypyrrolidin-3-yl)-3-methoxy-4-(4-(3,4,5-trifluorophenyl)-1H-1,2,3-triazol-1-yl)tetrahydro-2H-pyran-2-carboxamide], the half-maximal inhibitory concentration (IC50) amounted to 26 nM.

Regarding `CO[C@@H]1[C@@H](n2cc(-c3ccc(C)c(F)c3F)nn2)[C@@H](O)[C@@H](CO)O[C@H]1C(=O)N(c1cc(Cl)cc(Cl)c1)[C@H]1CNC[C@@H]1O` [Example 63, (2R,3R,4S,5R,6R)-N-(3,5-dichlorophenyl)-4-(4-(2,3-difluoro-4-methylphenyl)-1H-1,2,3-triazol-1-yl)-5-hydroxy-6-(hydroxymethyl)-N-((3S,4S)-4-hydroxypyrrolidin-3-yl)-3-methoxytetrahydro-2H-pyran-2-carboxamide], the IC50 came to 24 nM.

For `CO[C@@H]1[C@@H](n2cc(-c3ccc(C)c(F)c3F)nn2)[C@@H](O)[C@@H](CO)O[C@H]1C(=O)N(c1cc(C)cc(Br)c1)[C@H]1CNC[C@@H]1O` [Example 64, (2R,3R,4S,5R,6R)-N-(3-bromo-5-methylphenyl)-4-(4-(2,3-difluoro-4-methylphenyl)-1H-1,2,3-triazol-1-yl)-5-hydroxy-6-(hydroxymethyl)-N-((3S,4S)-4-hydroxypyrrolidin-3-yl)-3-methoxytetrahydro-2H-pyran-2-carboxamide], the IC50 came out at 25 nM.

With `CO[C@@H]1[C@@H](n2cc(-c3ccc(Cl)c(Cl)c3)nn2)[C@@H](O)[C@@H](CO)O[C@H]1C(=O)N(c1cc(Cl)cc(Cl)c1)[C@H]1CNC[C@@H]1O` [Example 65, (2R,3R,4S,5R,6R)-N-(3,5-dichlorophenyl)-4-(4-(3,4-dichlorophenyl)-1H-1,2,3-triazol-1-yl)-5-hydroxy-6-(hydroxymethyl)-N-((3S,4S)-4-hydroxypyrrolidin-3-yl)-3-methoxytetrahydro-2H-pyran-2-carboxamide], the IC50 was 54 nM.

In the case of `CO[C@@H]1[C@@H](n2cc(-c3cc(F)c(F)c(F)c3)nn2)[C@@H](O)[C@@H](CO)O[C@H]1C(=O)N(c1cc(Cl)cc(Cl)c1)[C@@H]1CNC[C@H]1O` [Example 66, (2R,3R,4S,5R,6R)-N-(3,5-dichlorophenyl)-5-hydroxy-6-(hydroxymethyl)-N-((3R,4R)-4-hydroxypyrrolidin-3-yl)-3-methoxy-4-(4-(3,4,5-trifluorophenyl)-1H-1,2,3-triazol-1-yl)tetrahydro-2H-pyran-2-carboxamide], the IC50 stood at 182 nM.

Take `CO[C@@H]1[C@@H](n2cc(-c3cc(F)c(F)c(F)c3)nn2)[C@@H](O)[C@@H](CO)O[C@H]1C(=O)N(c1cc(Br)cc(C#N)c1)[C@@H]1CNC[C@H]1O` [Example 67, (2R,3R,4S,5R,6R)-N-(3-bromo-5-cyanophenyl)-5-hydroxy-6-(hydroxymethyl)-N-((3R,4R)-4-hydroxypyrrolidin-3-yl)-3-methoxy-4-(4-(3,4,5-trifluorophenyl)-1H-1,2,3-triazol-1-yl)tetrahydro-2H-pyran-2-carboxamide]: the IC50 was found to be 129 nM.

`CO[C@@H]1[C@@H](n2cc(-c3cc(F)c(F)c(F)c3)nn2)[C@@H](O)[C@@H](CO)O[C@H]1C(=O)N(c1cc(C)cc(Br)c1)[C@@H]1CNC[C@H]1O` [Example 68, (2R,3R,4S,5R,6R)-N-(3-bromo-5-methylphenyl)-5-hydroxy-6-(hydroxymethyl)-N-((3R,4R)-4-hydroxypyrrolidin-3-yl)-3-methoxy-4-(4-(3,4,5-trifluorophenyl)-1H-1,2,3-triazol-1-yl)tetrahydro-2H-pyran-2-carboxamide]: the IC50 was determined as 222 nM.

For `CO[C@@H]1[C@@H](n2cc(-c3ccc(C)c(F)c3F)nn2)[C@@H](O)[C@@H](CO)O[C@H]1C(=O)N(c1cc(C)cc(Br)c1)[C@@H]1CNC[C@H]1O` [Example 69, (2R,3R,4S,5R,6R)-N-(3-bromo-5-methylphenyl)-4-(4-(2,3-difluoro-4-methylphenyl)-1H-1,2,3-triazol-1-yl)-5-hydroxy-6-(hydroxymethyl)-N-((3R,4R)-4-hydroxypyrrolidin-3-yl)-3-methoxytetrahydro-2H-pyran-2-carboxamide], the IC50 is 38 nM.

`CO[C@@H]1[C@@H](n2cc(-c3cc(F)c(F)c(F)c3)nn2)[C@@H](O)[C@@H](CO)O[C@H]1C(=O)N(c1cc(Cl)cc(Cl)c1)[C@H]1CN(C(C)=O)C[C@@H]1O` [Example 71, (2R,3R,4S,5R,6R)-N-((3S,4S)-1-acetyl-4-hydroxypyrrolidin-3-yl)-N-(3,5-dichlorophenyl)-5-hydroxy-6-(hydroxymethyl)-3-methoxy-4-(4-(3,4,5-trifluorophenyl)-1H-1,2,3-triazol-1-yl)tetrahydro-2H-pyran-2-carboxamide]: the IC50 stood at 36 nM.

Take `CO[C@@H]1[C@@H](n2cc(-c3cc(F)c(F)c(F)c3)nn2)[C@@H](O)[C@@H](CO)O[C@H]1C(=O)N(c1cc(C)cc(Br)c1)[C@H]1CN(C(C)=O)C[C@@H]1O` [Example 72, (2R,3R,4S,5R,6R)-N-((3S,4S)-1-acetyl-4-hydroxypyrrolidin-3-yl)-N-(3-bromo-5-methylphenyl)-5-hydroxy-6-(hydroxymethyl)-3-methoxy-4-(4-(3,4,5-trifluorophenyl)-1H-1,2,3-triazol-1-yl)tetrahydro-2H-pyran-2-carboxamide]: the IC50 was determined as 26 nM.

With `CO[C@@H]1[C@@H](n2cc(-c3ccc(Br)c(F)c3F)nn2)[C@@H](O)[C@@H](CO)O[C@H]1C(=O)N(c1cc(Cl)cc(Cl)c1)[C@H]1CN(C(C)=O)C[C@@H]1O` [Example 73, (2R,3R,4S,5R,6R)-N-((3S,4S)-1-acetyl-4-hydroxypyrrolidin-3-yl)-4-(4-(4-bromo-2,3-difluorophenyl)-1H-1,2,3-triazol-1-yl)-N-(3,5-dichlorophenyl)-5-hydroxy-6-(hydroxymethyl)-3-methoxytetrahydro-2H-pyran-2-carboxamide], the half-maximal inhibitory concentration (IC50) worked out at 23 nM.

In the case of `CO[C@@H]1[C@@H](n2cc(-c3cc(F)c(C)c(F)c3)nn2)[C@@H](O)[C@@H](CO)O[C@H]1C(=O)N(c1cc(Br)cc(Br)c1)[C@H]1CN(C(C)=O)C[C@@H]1O` [Example 74, (2R,3R,4S,5R,6R)-N-((3S,4S)-1-acetyl-4-hydroxypyrrolidin-3-yl)-N-(3,5-dibromophenyl)-4-(4-(3,5-difluoro-4-methylphenyl)-1H-1,2,3-triazol-1-yl)-5-hydroxy-6-(hydroxymethyl)-3-methoxytetrahydro-2H-pyran-2-carboxamide], the IC50 turned out to be 27 nM.

For `CO[C@@H]1[C@@H](n2cc(-c3cc(F)c(C)c(F)c3)nn2)[C@@H](O)[C@@H](CO)O[C@H]1C(=O)N(c1cc(C)cc(Br)c1)[C@H]1CN(C(C)=O)C[C@@H]1O` [Example 75, (2R,3R,4S,5R,6R)-N-((3S,4S)-1-acetyl-4-hydroxypyrrolidin-3-yl)-N-(3-bromo-5-methylphenyl)-4-(4-(3,5-difluoro-4-methylphenyl)-1H-1,2,3-triazol-1-yl)-5-hydroxy-6-(hydroxymethyl)-3-methoxytetrahydro-2H-pyran-2-carboxamide], the IC50 is 22 nM.

Regarding `CO[C@@H]1[C@@H](n2cc(-c3cc(F)c(Cl)c(F)c3)nn2)[C@@H](O)[C@@H](CO)O[C@H]1C(=O)N(c1cc(C)cc(Br)c1)[C@H]1CN(C(C)=O)C[C@@H]1O` [Example 76, (2R,3R,4S,5R,6R)-N-((3S,4S)-1-acetyl-4-hydroxypyrrolidin-3-yl)-N-(3-bromo-5-methylphenyl)-4-(4-(4-chloro-3,5-difluorophenyl)-1H-1,2,3-triazol-1-yl)-5-hydroxy-6-(hydroxymethyl)-3-methoxytetrahydro-2H-pyran-2-carboxamide], the IC50 worked out at 37 nM.

Values taken from patent publication US20240124427A1, “HYDROXYHETEROCYCLOALKANE-CARBAMOYL DERIVATIVES” (Idorsia Pharmaceuticals Ltd, priority 2021, published 2024).
